Measurements as given in patent US20040096427A1, “Oral gram(+) bacteria and glutamine composition for prevention and/or treatment of gastro-intestinal dysfunctions including inflammation in the gastro-intestinal tract, neonatal necrotizing enterocolitis (nec) and bacterial sepsis” (priority 2003, published 2004).

Tests used:
E. coli [1] = conditions: cited from earlier work; for tissue injury and inflammatory cell infiltration: rabbit ileal loop model, U.S. Pat. No. 6,132,710
E. coli [2] = conditions: cited from earlier work; for adherence and translocation of Gram (−) organisms such as E. coli: Caco-2 cell culture model, U.S. Pat. No. 6,132,710
E. coli [3] = assay: Caco-2 cell transwell system, E. coli translocation (transcytosis); assay type: cell-based; conditions: inventors' determination
Description: Caco-2 cells derived from human adenocarcinoma cells which show all the morphological and functional characteristics of mature small intestinal epithelial cells after differentiation were employed in a number of experimental systems. Panigrahi et al., Development of an in vitro model for study of non-01 Vibrio cholerae virulence using Caco-2 cells, Infect. Immun., 58:3415-3424 (1990). Caco-2 cells were grown in DMEM supplemented with 1% nonessential amino acids, 1% sodium pyruvate, 10% fetal calf serum, 100 U penicillin and 100 μg of streptomycin/mL in a 5% CO2 atmosphere at 37° C. For transcytosis studies, 0.2×10^6 cells in 0.3 mL medium were seeded on the apical side of 0.6 cm^2 polycarbonate transwell filters/clusters (Costar, Cambridge, Mass.). […]
A Caco-2 cell transwell system was used in accordance with Panigrahi et al. (1990) and Panigrahi et al. (1994) to grow cells on a membrane allowing the measurement of bacteria that translocate. Briefly, Caco-2 cells were grown on polycarbonate filters in transwell cluster and TEER (trans-epithelial electrical resistance) was measured before and after treatment (1) with E. coli alone, (2) in a system deprived of glutamine, (3) in a system deprived of glutamine and later replenished with glutamine, and (4) in a system deprived of glutamine and treated with a Lactobacillus strain ATCC 202195 and glutamine composition. […]

E. coli [4] = assay: E. coli adherence to gastro-intestinal mucosa; conditions: inventors' determination

| Compound | protection against Gram (−) bacteria-induced necrotizing enterocolitis (E. coli [1]; instillation of rabbit ileal loops with glutamine, U.S. Pat. No. 5,981,590) | bacterial translocation (E. coli [2]; glutamine supplied from the luminal (apical) side, U.S. Pat. No. 5,981,590) | effect on translocation of E. coli across mucosal layers (E. coli [3]) | effect on E. coli adherence to gastro-intestinal mucosa (E. coli [4]) | tissue injury and inflammatory cell infiltration (E. coli [1]) | adherence and translocation of Gram (−) organisms such as E. coli (E. coli [2]) |
| --- | --- | --- | --- | --- | --- | --- |
| NC(=O)CC[C@H](N)C(=O)O [glutamine] | protects | reduce bacterial translocation | prevents translocation | does not have an effect |  |  |
| Lactobacillus |  |  |  | prevents initial steps |  |  |
| Lactobacillus plantarum |  |  |  |  | reduced | capable of blocking |
| Lactobacillus acidophilus |  |  |  |  | reduced | capable of blocking |
